Patent US20070128217A1 (priority 2003, published 2007)

How the values were obtained:
[1] = test system: control sera (pooled serum of ten healthy LUMC hospital workers; commercial negative donor pooled serum from the Dutch bloodbank); assay type: binding, human; set-up: Binding of Control serum LUMC to linear peptides / Binding of Control serum Blood-bank to linear peptides / Binding of Control serum LUMC to looped peptides / Binding of Control Serum Blood-Bank to Looped peptides / Binding of Control serum LUMC to linear peptides of the protein M of SARS-CoV Urbani / Binding of Control serum Blood-bank to linear peptides of the protein M of SARS-CoV Urbani / Binding of Control serum LUMC to looped peptides of the protein M of SARS-CoV Urbani / Binding of Control Serum Blood-Bank to Looped peptides of the protein M of SARS-CoV Urbani: unit not given here
[2] = test system: rabbit serum obtained by immunizing a rabbit with the SARS-CoV strain Frankfurt 1; assay type: binding; set-up: Binding of a rabbit serum to linear peptides / Binding of a rabbit serum to looped peptides / Rabbit serum linear peptides / Rabbit serum looped peptides / Binding of a rabbit serum to linear peptides of protein N of SARS-CoV Urbani (Rabbit serum linear peptides) / Binding of a rabbit serum to looped/cyclic peptides of protein N of SARS-CoV Urbani (Rabbit serum looped peptides): unit not given here
[3] = test system: recombinant human anti-SARS-CoV antibody 03-018; assay type: binding; set-up: Binding of antibody 03-018 to linear peptides of the N protein of SARS-CoV Urbani / Binding of antibody 03-018 to looped/cyclic peptides of the N protein of SARS-CoV Urbani: unit not given here
[4] = test system: antibodies in sera from SARS patients (sera 1a, 1b, 2, 6, 37, 62, London, SARS-yellow, SARS-green); assay type: binding, human; set-up: Binding of serum 6 to linear peptides of protein X1 of SARS-CoV Urbani / Binding of serum 37 to linear peptides of protein X1 of SARS-CoV Urbani / Binding of serum 6 to looped/cyclic peptide (PEPSCAN-ELISA) / Binding of serum 37 to looped/cyclic peptide (PEPSCAN-ELISA) / Binding of serum 37 to looped/cyclic peptides of protein X1 of SARS-CoV Urbani / Binding of serum 6 to linear peptides of protein X2 / Binding of serum 37 to linear peptides of protein X2 / Binding of serum 37 to looped/cyclic peptides of protein X2 of SARS-CoV Urbani / Binding of serum 6 to linear peptides of protein M of SARS-CoV Urbani / Binding of serum 37 to linear peptides of protein M of SARS-CoV Urbani / Binding of serum 6 to looped/cyclic peptides of protein M of SARS-CoV Urbani / Binding of serum 37 to looped/cyclic peptides of protein M of SARS-CoV Urbani / Binding of serum 6 to linear peptides of protein X3 of SARS-CoV Urbani / Binding of serum 37 to linear peptides of protein X3 of SARS-CoV Urbani / Binding of serum 37 to looped/cyclic peptides of protein X3 of SARS-CoV Urbani / Binding of serum 6 to linear peptides of protein X4 of SARS-CoV Urbani / Binding of serum 37 to linear peptides of protein X4 of SARS-CoV Urbani / Binding of serum 37 to looped/cyclic peptides of protein X4 of SARS-CoV Urbani / Binding of serum 6 to linear peptides of protein X5 of SARS-CoV Urbani / Binding of serum 37 to linear peptides of protein X5 of SARS-CoV Urbani / Binding of serum 37 to looped/cyclic peptides of protein X5 of SARS-CoV Urbani / Binding of serum 6 to linear peptides of protein N of SARS-CoV Urbani / Binding of serum 37 to linear peptides of protein N of SARS-CoV Urbani / Binding of serum 6 to linear peptide (PEPSCAN-ELISA) / Binding of serum 1a to looped/cyclic peptides of protein N of SARS-CoV Urbani / Binding of serum 1b to looped/cyclic peptides of protein N of SARS-CoV Urbani / Binding of serum 2 to looped/cyclic peptides of protein N of SARS-CoV Urbani / Binding of serum 6 to looped/cyclic peptides of protein N of SARS-CoV Urbani / Binding of serum 37 to looped/cyclic peptides of protein N of SARS-CoV Urbani / Binding of serum 62 to looped/cyclic peptides of protein N of SARS-CoV Urbani / Binding of serum London to looped/cyclic peptides of protein N of SARS-CoV Urbani / Binding of serum SARS-green to looped/cyclic peptides of protein N of SARS-CoV Urbani: unit not given here

| Sequence | Binding of Control Serum Blood-Bank to Looped peptides [1] | Binding of Control serum Blood-bank to linear peptides [1] | Binding of Control serum LUMC to linear peptides [1] | Binding of Control serum LUMC to looped peptides [1] | Binding of a rabbit serum to linear peptides of protein N of SARS-CoV Urbani (Rabbit serum linear peptides) [2] | Binding of a rabbit serum to looped/cyclic peptides of protein N of SARS-CoV Urbani (Rabbit serum looped peptides) [2] | Binding of antibody 03-018 to linear peptides of the N protein of SARS-CoV Urbani [3] | Binding of antibody 03-018 to looped/cyclic peptides of the N protein of SARS-CoV Urbani [3] | Binding of serum 1a to looped/cyclic peptides of protein N of SARS-CoV Urbani [4] | Binding of serum 1b to looped/cyclic peptides of protein N of SARS-CoV Urbani [4] | Binding of serum 2 to looped/cyclic peptides of protein N of SARS-CoV Urbani [4] | Binding of serum 6 to looped/cyclic peptides of protein N of SARS-CoV Urbani [4] | Binding of serum 37 to looped/cyclic peptides of protein N of SARS-CoV Urbani [4] | Binding of serum 62 to looped/cyclic peptides of protein N of SARS-CoV Urbani [4] | Binding of serum London to looped/cyclic peptides of protein N of SARS-CoV Urbani [4] | Binding of serum SARS-green to looped/cyclic peptides of protein N of SARS-CoV Urbani [4] | Binding of serum SARS-yellow to looped/cyclic peptides of protein N of SARS-CoV Urbani [4] | other results |
| --- | --- | --- | --- | --- | --- | --- | --- | --- | --- | --- | --- | --- | --- | --- | --- | --- | --- | --- |
| PRGQGVPINTNSGPD | 0.4 | 0.7 | 0.5 | 0.3 | 0.1 | 0.0 | 0.1 | 0.2 | 0.2 | 0.1 | 0.2 | 0.1 | 0.3 | 0.2 | 0.2 | 0.1 | 0.1 | Binding of serum 1a to linear peptides of protein N of SARS-CoV Urbani [4]: 0.2; Binding of serum 1b to linear peptides of protein N of SARS-CoV Urbani [4]: 0.1; Binding of serum 2 to linear peptides of protein N of SARS-CoV Urbani [4]: 0.1; Binding of serum 6 to linear peptides of protein N of SARS-CoV Urbani [4]: 0.1; Binding of serum 37 to linear peptides of protein N of SARS-CoV Urbani [4]: 0.6; Binding of serum 62 to linear peptides of protein N of SARS-CoV Urbani [4]: 0.4; Binding of serum London to linear peptides of protein N of SARS-CoV Urbani [4]: 0.4; Binding of serum SARS-green to linear peptides of protein N of SARS-CoV Urbani [4]: 0.2; Binding of serum SARS-yellow to linear peptides of protein N of SARS-CoV Urbani [4]: 0.6 |
| LNQLESKVSGKGQQQ | 0.7 | 0.8 | 0.7 | 0.7 | 0.2 | 0.4 | 0.1 | 0.3 | 0.4 | 0.3 | 0.6 | 0.4 | 0.6 | 0.6 | 0.5 | 0.5 | 0.8 | Binding of serum 1a to linear peptide (PEPSCAN-ELISA) [4]: 0.3; Binding of serum 1b to linear peptide (PEPSCAN-ELISA) [4]: 0.1; Binding of serum 2 to linear peptide (PEPSCAN-ELISA) [4]: 0.3; Binding of serum 6 to linear peptide (PEPSCAN-ELISA) [4]: 0.2; Binding of serum 37 to linear peptide (PEPSCAN-ELISA) [4]: 0.7; Binding of serum 62 to linear peptide (PEPSCAN-ELISA) [4]: 0.9; Binding of serum London to linear peptide (PEPSCAN-ELISA) [4]: 0.6; Binding of serum SARS-green to linear peptide (PEPSCAN-ELISA) [4]: 0.4; Binding of serum SARS-yellow to linear peptide (PEPSCAN-ELISA) [4]: 0.7 |
